Laboratory results from patent US8404673B2, “Carbocyclic GlyT1 receptor antagonists” (Hoffmann-La Roche Inc., priority 2009, dated 2013).
Like-named read-outs stand apart in the source and are kept apart here.

Target: T1, mGlyT-1b (Mus musculus, UniProt P28571)
T1 construct: host or cells: Flp-in-CHO
T1 sequence (P28571 1-651 isoform P28571-2): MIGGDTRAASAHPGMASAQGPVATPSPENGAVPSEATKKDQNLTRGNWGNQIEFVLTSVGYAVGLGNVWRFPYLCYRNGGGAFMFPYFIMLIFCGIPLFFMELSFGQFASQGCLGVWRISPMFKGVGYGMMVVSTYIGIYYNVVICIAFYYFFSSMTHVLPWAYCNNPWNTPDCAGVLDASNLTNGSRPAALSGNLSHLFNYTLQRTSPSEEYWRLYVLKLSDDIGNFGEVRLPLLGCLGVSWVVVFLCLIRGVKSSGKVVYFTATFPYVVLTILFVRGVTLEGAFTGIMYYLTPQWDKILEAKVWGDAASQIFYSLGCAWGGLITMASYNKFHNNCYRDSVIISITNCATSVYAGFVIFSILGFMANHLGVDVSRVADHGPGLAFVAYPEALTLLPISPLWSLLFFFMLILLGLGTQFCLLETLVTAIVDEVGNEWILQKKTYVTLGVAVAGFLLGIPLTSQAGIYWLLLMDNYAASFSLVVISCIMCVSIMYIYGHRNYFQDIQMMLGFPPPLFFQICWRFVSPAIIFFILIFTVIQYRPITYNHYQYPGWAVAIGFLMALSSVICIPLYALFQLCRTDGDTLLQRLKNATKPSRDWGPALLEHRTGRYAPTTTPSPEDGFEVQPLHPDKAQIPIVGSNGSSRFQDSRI
Assay: Glycine Uptake Inhibition Assay (mGlyT-1b)
Assay type: cell-based

SMILES	IC50 (IC50 data)	IC50 (read-out: IC50 data)
O=C(N[C@H]1CCC[C@H]1N1CCCC1)c1ccc(C(F)(F)F)cc1C1CC1 (racemic) [Example 91, 2-Cyclopropyl-cis-N-(2-pyrrolidin-1-yl-cyclopentyl)-4-trifluoromethyl-benzamide]	0.0453 µM	
CCc1cccc(C2CC2)c1C(=O)N[C@@H]1CCC[C@@H]1N1CCCC1 (single isomer, unassigned) [Example 120, (−)-cis-2-Cyclopropyl-6-ethyl-N-(2-pyrrolidin-1-yl-cyclopentyl)-benzamide]	0.0552 µM	
COc1cc(C(F)(F)F)cc(C2CC2)c1C(=O)N[C@H]1CCC[C@H]1N1CCCC1 (relative stereo) [Example 131, 2-Cyclopropyl-6-methoxy-N-((cis)-2-pyrrolidin-1-yl-cyclopentyl)-4 trifluoromethyl-benzamide]	0.0199 µM	
CCc1cc(C(F)(F)F)cc(C(F)(F)F)c1C(=O)N[C@H]1CCC[C@H]1N1CCCC1 (relative stereo) [Example 137, 2-Ethyl-N-((cis)-2-pyrrolidin-1-yl-cyclopentyl)-4,6-bis-trifluoromethyl-benzamide]	0.0462 µM	
O=C(N[C@H]1CCC[C@H]1N1CCCC1)c1c(C2CC2)cc(C(F)(F)F)cc1C(F)(F)F (relative stereo) [Example 130, 2-Cyclopropyl-N-((cis)-2-pyrrolidin-1-yl-cyclopentyl)-4,6-bis-trifluoromethyl-benzamide]	0.0354 µM	
COc1cc(C(F)(F)F)cc(SC)c1C(=O)N[C@@H]1CCC[C@@H]1N1CCCC1 (single isomer, unassigned) [Example 58, (−)-2-Methoxy-6-methylsulfanyl-N-(2-pyrrolidin-1-yl-cyclopentyl)-4-trifluoromethyl-benzamide]	0.0276 µM	
CCc1cccc(C2CC2)c1C(=O)N[C@H]1CCC[C@H]1N1CCCC1 (racemic) [Example 98, cis-2-Cyclopropyl-6-ethyl-N-(2-pyrrolidin-1-yl-cyclopentyl)-benzamide]	0.0801 µM	
CCc1cc(C(F)(F)F)cc(C(F)(F)F)c1C(=O)NC1CCCC1N1CCCC1 (single isomer, unassigned) [Example 142]	0.068 µM	
O=C(NC1CCCC1N1CCCC1)c1ccc(C(F)(F)F)cc1C1CC1 (single isomer, unassigned; (+)) [Example 97, (+)-2-Cyclopropyl-N-cis-(-2-pyrrolidin-1-yl-cyclopentyl)-4-trifluoromethyl-benzamide]	0.0824 µM	
CCc1cccc(C2CC2)c1C(=O)N[C@@H]1CCC[C@@H]1N1CCCC1 (single isomer, unassigned) [Example 121, (+)-cis-2-Cyclopropyl-6-ethyl-N-(2-pyrrolidin-1-yl-cyclopentyl)-benzamide]	0.0361 µM	
COc1cc(C(F)(F)F)cc(SC)c1C(=O)N[C@H]1CCC[C@H]1NC1CCCC1 (single isomer, unassigned) [Example 68, (−)-N-(2-Cyclopentylamino-cyclopentyl)-2-methoxy-6-methylsulfanyl-4-trifluoromethyl-benzamide]		0.0194 µM
O=C(N[C@@H]1CCC[C@@H]1N1CCCC1)c1c(F)cc(C(F)(F)F)cc1C(F)(F)F (single isomer, unassigned) [Example 126, (−)-cis-2-Fluoro-N-(2-pyrrolidin-1-yl-cyclopentyl)-4,6-bis-trifluoromethyl-benzamide]	0.074 µM	
COc1cc(C(F)(F)F)cc(SC)c1C(=O)N[C@@H]1CCC[C@@H]1N1CCCC1 (racemic) [Example 55, 2-Methoxy-6-methylsulfanyl-N-((1RS,2SR)-2-pyrrolidin-1-yl-cyclopentyl)-4-trifluoromethyl-benzamide]	0.0846 µM	
CSc1cc(C(F)(F)F)ccc1C(=O)N[C@@H]1CCC[C@@H]1N1CCCC1 (single isomer, unassigned) [Example 85, (−)-2-Methylsulfanyl-N-(2-pyrrolidin-1-yl-cyclopentyl)-4-trifluoromethyl-benzamide]	0.0604 µM	
COc1cc(C(F)(F)F)cc(SC)c1C(=O)N[C@@H]1CCC[C@@H]1NC1CCCC1 (racemic) [Example 65, N-((1RS,2SR)-2-Cyclopentylamino-cyclopentyl)-2-methoxy-6-methylsulfanyl-4-trifluoromethyl-benzamide]		0.0564 µM
O=C(NC1CCCC1NC1CCCC1)c1ccc(C(F)(F)F)cc1C1CC1 (single isomer, unassigned; (-)) [Example 110, (−)-cis-N-2-Cyclopentylamino-cyclopentyl)-2-cyclopropyl-4-trifluoromethyl-benzamide]		0.0543 µM
O=C(N[C@H]1CCC[C@H]1NC1CCCC1)c1ccc(C(F)(F)F)cc1C1CC1 (racemic) [Example 102, N-((1SR,2RS)-2-Cyclopentylamino-cyclopentyl)-2-cyclopropyl-4-trifluoromethyl-benzamide]		0.0351 µM
COc1cc(C(F)(F)F)cc(Br)c1C(=O)N[C@H]1CCC[C@H]1N1CCCC1 (racemic) [Example 101, 2-Bromo-6-methoxy-N-cis-(2-pyrrolidin-1-yl-cyclopentyl)-4-trifluoromethyl-benzamide]	0.0948 µM	
CSc1cc(C(F)(F)F)cc(C(F)(F)F)c1C(=O)N[C@H]1CCC[C@H]1N1CCCC1 (racemic) [Example 104, cis-2-Methylsulfanyl-N-(2-pyrrolidin-1-yl-cyclopentyl)-4,6-bis-trifluoromethyl-benzamide]	0.0189 µM	
O=C(NC1CCCC1N1CCCC1)c1c(Cl)cc(C(F)(F)F)cc1Cl (single isomer, unassigned; (-)) [Example 129, (−)-2,6-Dichloro-N-cis-(2-pyrrolidin-1-yl-cyclopentyl)-4-trifluoromethyl-benzamide]	0.0645 µM	
COc1cc(C(F)(F)F)cc(SC)c1C(=O)N[C@@H]1CCC[C@@H]1NC1CCC1 (racemic) [Example 61, N-((1RS,2SR)-2-Cyclobutylamino-cyclopentyl)-2-methoxy-6-methylsulfanyl-4-trifluoromethyl-benzamide]		0.0659 µM
CSc1cc(C(F)(F)F)cc(C(F)(F)F)c1C(=O)N[C@@H]1CCC[C@@H]1N1CCCC1 (single isomer, unassigned) [Example 119, (−)-cis-2-Methylsulfanyl-N-(2-pyrrolidin-1-yl-cyclopentyl)-4,6-bis-trifluoromethyl-benzamide]	0.0654 µM	
CCc1cccc(C)c1C(=O)N[C@H]1CCC[C@H]1N1CCCC1 (relative stereo) [Example 94, cis-2-Ethyl-6-methyl-N-(2-pyrrolidin-1-yl-cyclopentyl)-benzamide]	0.0984 µM	
COc1cc(C(F)(F)F)cc(Br)c1C(=O)NC1CCCC1N1CCCC1 (single isomer, unassigned; (+)) [Example 115, (+)-2-Bromo-6-methoxy-N-cis-(2-pyrrolidin-1-yl-cyclopentyl)-4-trifluoromethyl-benzamide]	0.0714 µM	
CCc1cc(C(F)(F)F)ccc1C(=O)N[C@H]1CCC[C@H]1NC1CCCC1 (racemic) [Example 89, cis-N-(2-Cyclopentylamino-cyclopentyl)-2-ethyl-4-trifluoromethyl-benzamide]		0.0794 µM
Cc1cc(C(F)(F)F)cc(C(F)(F)F)c1C(=O)N[C@H]1CCC[C@H]1N1CCCC1 (relative stereo) [Example 103, cis-2-Methyl-N-(2-pyrrolidin-1-yl-cyclopentyl)-4,6-bis-trifluoromethyl-benzamide]	0.0249 µM	
